Laboratory results published in EP3050886A1, “Fluorescent dyes and dye precursors” (Bürkert Werke GmbH, priority 2015, dated 2016).

What was measured:
[1] = tested on: Pseudomonas aeruginosa; assay: Bacteria staining test, fluorescence microscopy; type: cell-based; details: for fluorescence of stained viable bacteria compared with 5-CFDA: viable P. aeruginosa; for staining of viable versus dead bacteria: viable or dead P. aeruginosa, Fig. 3c
Method: (§1) Escherichia coli (E. coli) (ATCC 8739) and Bacillus subtilis (B. subtilis) (ATCC 6633) strains were routinely grown in Luria Bertani (LB) broth or on LB agar plates for 18h at 37 °C. Waterborne environmental bacteria such as Enterobacter cloacae (E. cloacae), Chryseobacterium indologenes (C. indologenes), Pseudomonas aeruginosa (P. aeruginosa), and E. coli (EC18) were purchased from Eurofins™. Environmental bacteria were grown in LB broth or on casein-peptone soymeal-peptone agar plates for 18h at 37 °C.
(§2) For the staining tests, E. coli (ATCC 8739 or EC18), E. cloacae, C. indologenes, P. aeruginosa and B. subtilis were cultivated in Luria-Bertani (LB) broth until exponential phase at 37°C with shaking at 300 rpm revolutions per minutes (rpm). Bacteria were harvested and washed in sterile phosphate buffer saline solution (PBS) at pH […] by centrifugation at 10000 rpm for 3 min at room temperature (21 ± 2 °C). Then the bacteria were resuspended in PBS at a concentration of 1·10^9 bacteria/ml. Bacteria concentration was calculated according to the turbidity measure at 660 nm (A660nm=1 correspond to bacterial suspension at ∼ 5·10^8 bacteria/ ml).
(§3) Dead bacterial suspensions at 1·10^9 bacteria/ml (negative controls) of these five species of bacteria were prepared individually by addition of 20 µl of bleach containing 2.6 % active chlorine. Bacteria were treated with bleach solution for 15 min. Dead bacteria were washed twice in sterile PBS by centrifugation at 10000 rpm for 3 min at room temperature. The culturability of the negative controls was assessed by plating 100 µl of bacterial suspension onto LB agar or Caso agar and incubating the plates at 37 °C for 72 h.
(§4) Bacteria (100 µl suspension at 1·10^9 bacteria/ml) were stained with 10 µM or 15 µM of pro-fluorophore (5-CFDA, 5-PFDAE, 5-PFDAT, 5-PFDA, 5-COGDA, 5-POGDA or 5-POGAM) in 200 µl of PBS solution containing 0.6 % of glutaraldehyde. Bacteria were incubated at 37 °C for 10 - 60 min with pro-fluorophore in darkness. After bacterial staining, they were washed and resuspended in 100 µl of PBS as described above.
(§5) Staining of the bacterial suspension was observed under a fluorescent microscope. These bacteria were imaged with a Leica DM5500 microscope equipped with FITC filter. […] Images were collected with a 100x objective. Fluorescence intensity of stained bacterial suspension was also measured with FluoroLog®-3 (Horiba Jobin Yvon) spectrofluorometer equipped with sample stirring. Samples were placed in fluorescence grade quartz cuvette having a volume of 1 ml. The excitation wavelength used was 488 nm and emission wavelength used was 517 nm. The same experiment was repeated three times (n = 3).

[2] = tested on: Chryseobacterium indologenes; assay: Bacteria staining test, fluorescence microscopy; type: cell-based; details: for fluorescence of stained viable bacteria compared with 5-CFDA: viable C. indologenes; for staining of viable versus dead bacteria: viable or dead C. indologenes, Fig. 3b
Method: as §1, §2, §3, §4, §5

[3] = tested on: Enterobacter cloacae; assay: Bacteria staining test, fluorescence microscopy; type: cell-based; details: for fluorescence of stained viable bacteria compared with 5-CFDA: viable E. cloacae; for staining of viable versus dead bacteria: viable or dead E. cloacae, Fig. 3a
Method: as §1, §2, §3, §4, §5

[4] = tested on: Bacillus subtilis (B. subtilis) (ATCC 6633); assay: Bacteria staining test, fluorescence microscopy; type: cell-based; details: viable or dead B. subtilis, Fig. 3d
Method: as §1, §2, §3, §4, §5

[5] = Long-term stability in anhydrous DMSO (UHPLC-MS/MS); type: physicochemical; details: 120 µM in anhydrous DMSO, room temperature (23 ± 2 °C), absence of light, after 77 days
Method: To examine whether the pro-fluorophores 5-POGDA and 5-POGAM could be stored for at least two months in solution at room temperature (23 ± 2 °C) and in the absence of light, they were dissolved in anhydrous DMSO solvent and analysed by liquid chromatography-mass spectrometry. The analysis was performed using an UHPLC-MS/MS system (LC-MS 8030, Shimadzu). 5-POGDA or AM (120 µM) were stored in anhydrous DMSO. A solution of 5-CFDA (20 µM) in acetonitrile stored at -80°C was used as internal reference for HPLC-MS/MS analysis. The solution injected was composed of 5-POGDA or AM (1.2 µM), and 5-CFDA (0,2 µM) in H2O/acetonitrile, ratio 1/1 (V/V).
Data acquisition and analysis were performed using LabSolutions version 5 software. A 1.7 µm Kinetex™ column (50 X 2.1 mm) was used for HPLC. The mobile phase flow rate was fixed at 0.5 ml/min and the following program was applied for the elution: 0-1.2 min, 5-95% B; 1.2-1.4 min, 95% B; 1.4-1.42 min, […] and 1.42-2.8 min, 5% B. Solvent A consisted of 0.05% formic acid in water and solvent B was HPLC grade acetonitrile. 1 µl was injected.
The mass spectrometer was interfaced with the UHPLC system using an electrospray ion source. […] The percentage of remaining test compound relative to t0 was measured using the peak area on the chromatogram.

[6] = Absorption spectra / extinction coefficients; type: physicochemical; details: pro-fluorophores, PBS buffer containing 0.6 % glutaraldehyde at pH 7
Method: Absorption spectra were recorded in a 1-cm path length cuvette (Hellma, 104.002B-QS) on a SPECORD®-205 spectrometer from Analytik Jena.
The Extinction coefficients of the flourophores fluorescein, 5-carboxyfluorescein (5-CF), 5-carboxy Oregon Green™ (5-COG), 5-amido N-propyl Oregon Green (5-POG; Example 2) and 5-amido N-propyl fluorescein (5-PFA; Example 3) were measured in 0.1 M NaOH solution at pH 12.7.
The extinction coefficients of the pro-fluorophores 5-thiourea N-propyl fluorescein diacetate (5-PFDAT; Example 5), 5-propyl carboxylate fluorescein diacetate (5-PFDAE; Example 8), 5-amido N-propyl fluorescein diacetate (5-PFDA; Example 7), 5-carboxy Oregon Green diacetate (5-COGDA; Example 9), 5-amido N-propyl Oregon Green diacetate (5-POGDA; Example 6) and 5-amido N-propyl Oregon Green acetoxymethylester (5-POGAM; Example 10) were measured in PBS buffer containing 0.6 % glutaraldehyde at pH 7.

Compound | fluorescence of stained viable bacteria compared with 5-CFDA [1] | staining of viable versus dead bacteria [1] | fluorescence of stained viable bacteria compared with 5-CFDA [2] | staining of viable versus dead bacteria [2] | fluorescence of stained viable bacteria compared with 5-CFDA [3] | staining of viable versus dead bacteria [3] | staining of viable versus dead bacteria [4] | percentage remaining in the solution [5] | E (extinction coefficient) [6] [M⁻¹ cm⁻¹] | λAbs max [6] [nm]
CCCNC(=O)c1ccc2c(c1)C(=O)OC21c2cc(F)c(OCOC(C)=O)cc2Oc2cc(OCOC(C)=O)c(F)cc21 [Example 5-POGAM, 2',7'-difluoro-3-oxo-5-(propylcarbamoyl)-3H-spiroisobenzofuran-1,9'-xanthene-3',6'-diyl diacetoxymethyl ether] | brighter fluorescence than 5-CFDA stained bacteria | stained only viable | brighter fluorescence than 5-CFDA stained bacteria | stained only viable | brighter fluorescence than 5-CFDA stained bacteria | stained only viable | stained only viable | ~65% | 11165 ± 334 | 302
CCCNC(=O)c1ccc2c(c1)C(=O)OC21c2cc(F)c(OC(C)=O)cc2Oc2cc(OC(C)=O)c(F)cc21 [Example 5-POGDA, 2',7'-difluoro-3-oxo-5-(propylcarbamoyl)-3H-spiro[isobenzofuran-1,9'-xanthene]-3',6'-diyl diacetate] | brighter fluorescence than 5-CFDA stained bacteria | stained only viable | brighter fluorescence than 5-CFDA stained bacteria | stained only viable | brighter fluorescence than 5-CFDA stained bacteria | stained only viable | stained only viable | around 18% | 9784 ± 351 | 303
